A short description of series [1]: Evaluation of hygroscopicity (DVS; dynamic vapor sorption). The conditions noted are these: for Weight increase at relative humidity of 90% (%): DVS, 25° C., relative to weight at 0% RH after drying. It is filed as physicochemical. The method, then:
[3] Evaluation of Hygroscopicity (DVS; Dynamic Vapor Sorption)
Device: SGA-100 manufactured by TA Instruments,
Sample amount: 10 to 20 mg,
Measurement temperature: 25° C.,
Drying before measurement: 60° C., 1 hour,
Starting humidity: 0% RH,
Maximum humidity: 90% RH,
Equilibrium criteria: weight change rate in 5 minutes is 0.01% or less,
Sampling interval: 30 seconds,
Data recording interval: two minutes or time at which weight change rate become 0.01% or more.
Various acid addition salts of the compounds A produced in Examples (Examples 7, 8, 9, 10, 11, 12, 13, and 14) and the compound of the present invention (Example 6) were subjected to hygroscopicity evaluation. Based on the measurement conditions shown in [3] in [Study of acid addition salt of compound A], hygroscopicity was evaluated. Sample weight was recorded after the weight of the sample in the relative humidity set every 10% became equilibrium. After drying, the change amount (%) was converted on the basis of the weight when the relative humidity was 0%.

For a further series, the target named is T1, Axl (Homo sapiens, UniProt P30530).
T1 sequence (P30530 26-894): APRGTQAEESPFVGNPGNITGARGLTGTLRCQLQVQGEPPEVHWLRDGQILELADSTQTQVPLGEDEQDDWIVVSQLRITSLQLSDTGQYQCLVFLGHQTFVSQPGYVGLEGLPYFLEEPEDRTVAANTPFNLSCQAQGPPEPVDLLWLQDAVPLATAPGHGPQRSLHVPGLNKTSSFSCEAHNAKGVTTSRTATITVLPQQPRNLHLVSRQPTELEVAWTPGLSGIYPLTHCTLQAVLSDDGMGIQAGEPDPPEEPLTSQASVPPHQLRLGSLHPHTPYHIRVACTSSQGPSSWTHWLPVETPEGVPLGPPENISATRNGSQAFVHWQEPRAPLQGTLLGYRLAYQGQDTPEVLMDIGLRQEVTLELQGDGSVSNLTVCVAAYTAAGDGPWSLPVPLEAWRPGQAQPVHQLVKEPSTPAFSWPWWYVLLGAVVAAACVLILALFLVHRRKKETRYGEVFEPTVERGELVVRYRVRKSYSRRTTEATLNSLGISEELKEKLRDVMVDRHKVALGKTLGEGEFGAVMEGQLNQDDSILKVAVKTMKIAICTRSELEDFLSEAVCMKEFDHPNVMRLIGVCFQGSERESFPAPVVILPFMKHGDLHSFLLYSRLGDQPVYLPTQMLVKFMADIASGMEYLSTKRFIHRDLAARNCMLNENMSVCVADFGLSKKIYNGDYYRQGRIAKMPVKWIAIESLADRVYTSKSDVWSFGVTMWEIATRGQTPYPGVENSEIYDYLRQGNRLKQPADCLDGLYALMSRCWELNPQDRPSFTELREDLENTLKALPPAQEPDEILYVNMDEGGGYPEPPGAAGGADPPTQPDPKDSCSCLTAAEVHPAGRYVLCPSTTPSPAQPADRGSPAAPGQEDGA
The conditions noted are these: mentioned in Patent Literature 5 (WO2015/012298); cited from earlier work.

Another series relates to CYP. The settings on record: mentioned in Patent Literature 5 (WO2015/012298); cited from earlier work.
A short description of series [2]: Light stability evaluation of active pharmaceutical ingredient. It is filed as physicochemical. The conditions noted are these: for residual rate %: active pharmaceutical ingredient, 2500 Lux D65 lamp, 25° C., 20 days. The method, then: (§1) Ethanesulfonate of the compound A produced in Example 6 and p-toluenesulfonate of the compound A produced in Example 9 were evaluated in terms of the light stability. Each acid addition salt was weighed in a laboratory tube in about 1.8 to 2.2 mg, capped with a plastic cap and wrapped with a parafilm. A sample placed in the transparent laboratory tube was used as an exposure sample, a sample placed in the brown laboratory tube was used as a light shielded sample, and a sample placed in the brown laboratory tube and further covered with aluminum foil was used as an aluminum foil completely shielded sample. Each sample was exposed to light whose total illumination of 1200000 Lux-h or more and total near ultraviolet radiation energy of 200 W·h/m^2 or more by exposing to 2500 Lux D65 lamp at 25° C. for 20 days.
Detector: ultraviolet spectrometer (measurement wavelength: 215 nm),
Column: Imtakt Unison UK-C18 (3 μm, inner diameter: 4.6 mm×150 mm),
Column temperature: 40° C.,
Mobile phase: A liquid: 20 mM KH2PO4 aq. (pH 3.0), B liquid: CH3CN,
Flow rate: 1.0 mL/minute,
Area measurement range: 60 minutes
Sample concentration: 0.5 mg/mL.
(§2) The area percentage of ethanesulfonate of the compound A and p-toluenesulfonate of the compound A which were not exposed to light and stored at −20° C., and each acid addition salt of the compound A subjected to the above light stability test were calculated under the measurement conditions mentioned above. Next, in each acid addition salt of the compound A, the rate of the area percentage of the acid addition salt of the compound A which was not exposed to light and stored at −20° C. (area percentage of acid addition salt of compound A exposed to light for 20 days/area percentage of acid addition salt of compound A which is not exposed to light and stored at −20° C.×100) was calculated as the residual rate of each compound.

Series [3] can be described thus: Light stability evaluation of simple formulation (mixed with CEOLUS PH-301). The settings on record: simple formulation with CEOLUS PH-301 1 to 5 (weight ratio), 2500 Lux D65 lamp, 25° C., 20 days. Type of series: physicochemical. The method, then:
as §1, §2
Each acid addition salt of the compound A, regarding to ethanesulfonate of the compound A produced in Example 6 and p-toluenesulfonate of the compound A produced in Example 9, was mixed with CEOLUS (registered trademark) PH-301 (Asahi Kasei Corporation) in a mixing ratio of 1 to 5 (weight ratio) on a medicine paper with a spatula to prepare a simple formulation. The simple formulation was weighed into a laboratory tube in about 3 mg, capped with a plastic cap, and wrapped with a parafilm. Hereinafter, the light exposure condition of the compound, and the measurement conditions were corresponding to the […] of the stability of the active pharmaceutical ingredient of above (1).

Where [4] appears, read: Brown bottle (light shielded sample).
[5] abbreviates: Transparent bottle (exposure sample).

Data on 10 molecules can be found in US10836747B2, “Ethane-sulfonate salt of quinoline derivative” (ONO PHARMACEUTICAL CO., LTD., priority 2017, dated 2020).

For `COc1cc2nccc(Oc3ccc(NC(=O)c4cc5c(n(-c6ccccc6)c4=O)CCCC5=O)nc3)c2cc1OC.O=S(=O)(O)CCO` [Isethionate, N-{5-[(6,7-dimethoxy-4-quinolinyl)oxy]-2-pyridinyl}-2,5-dioxo-1-phenyl-1,2,5,6,7,8-hexahydro-3-quinolinecarboxamide isethionate], in series [1], the “Weight increase at relative humidity of 90% (%)” value stood at 14.5%.

In the case of `COc1cc2nccc(Oc3ccc(NC(=O)c4cc5c(n(-c6ccccc6)c4=O)CCCC5=O)nc3)c2cc1OC.Cl` [Hydrochloride, N-{5-[(6,7-dimethoxy-4-quinolinyl)oxy]-2-pyridinyl}-2,5-dioxo-1-phenyl-1,2,5,6,7,8-hexahydro-3-quinolinecarboxamide hydrochloride], in series [1], the “Weight increase at relative humidity of 90% (%)” value was 8.0%.

With `COc1cc2nccc(Oc3ccc(NC(=O)c4cc5c(n(-c6ccccc6)c4=O)CCCC5=O)nc3)c2cc1OC.O=S(=O)(O)CCS(=O)(=O)O` [Ethanedisulfonate, N-{5-[(6,7-dimethoxy-4-quinolinyl)oxy]-2-pyridinyl}-2,5-dioxo-1-phenyl-1,2,5,6,7,8-hexahydro-3-quinolinecarboxamide ethanedisulfonate], the “Weight increase at relative humidity of 90% (%)” value in series [1] came out at 46.4%.

With `COc1cc2nccc(Oc3ccc(NC(=O)c4cc5c(n(-c6ccccc6)c4=O)CCCC5=O)nc3)c2cc1OC.O=P(O)(O)O` [Phosphate, N-{5-[(6,7-dimethoxy-4-quinolinyl)oxy]-2-pyridinyl}-2,5-dioxo-1-phenyl-1,2,5,6,7,8-hexahydro-3-quinolinecarboxamide phosphate], the “Weight increase at relative humidity of 90% (%)” value in series [1] is recorded as 5.5%.

Consider `COc1cc2nccc(Oc3ccc(NC(=O)c4cc5c(n(-c6ccccc6)c4=O)CCCC5=O)nc3)c2cc1OC` [compound A, N-{5-[(6,7-dimethoxy-4-quinolinyl)oxy]-2-pyridinyl}-2,5-dioxo-1-phenyl-1,2,5,6,7,8-hexahydro-3-quinolinecarboxamide], for which the “Axl-selective inhibiting activity (in words)” value at Axl is recorded as “Axl-selective inhibiting activity”. Besides, the “CYP inhibitory action (in words)” value with CYP is listed as “low CYP inhibitory action”.

On to `COc1cc2nccc(Oc3ccc(NC(=O)c4cc5c(n(-c6ccccc6)c4=O)CCCC5=O)nc3)c2cc1OC.O=S(=O)(O)O` [Sulfate, N-{5-[(6,7-dimethoxy-4-quinolinyl)oxy]-2-pyridinyl}-2,5-dioxo-1-phenyl-1,2,5,6,7,8-hexahydro-3-quinolinecarboxamide sulfate], for which, in series [1], the “Weight increase at relative humidity of 90% (%)” value turned out to be 7.2%.

For `CCS(=O)(=O)O.COc1cc2nccc(Oc3ccc(NC(=O)c4cc5c(n(-c6ccccc6)c4=O)CCCC5=O)nc3)c2cc1OC` [Ethanesulfonate, N-{5-[(6,7-dimethoxy-4-quinolinyl)oxy]-2-pyridinyl}-2,5-dioxo-1-phenyl-1,2,5,6,7,8-hexahydro-3-quinolinecarboxamide ethanesulfonate], in series [1], the “Weight increase at relative humidity of 90% (%)” value is 0.7%. Moreover, the “rate of weight change upon moisture absorption (in words)” value in series [1] (among various acid addition salts of the compound A) is on record as “small rate of weight change upon moisture absorption”. Besides, the residual rate % in series [2] (Aluminum foil shielding) is reported as 100.0%; in series [2] (setting [4]), 99.5%; in series [2] (setting [5]), 94.5%; in series [3] (Aluminum foil shielding), 99.7%; in series [3] (Brown bottle), 98.4%; in series [3] (Transparent bottle), 59.3%. For the same molecule, the “stability to light (in words)” value in series [2] (compared with p-toluenesulfonate of the compound A, API and simple formulation) is reported as “more excellent also in terms of the stability to light”.

With `COc1cc2nccc(Oc3ccc(NC(=O)c4cc5c(n(-c6ccccc6)c4=O)CCCC5=O)nc3)c2cc1OC.O=S(=O)(O)c1ccccc1` [Benzensuplhonate, N-{5-[(6,7-dimethoxy-4-quinolinyl)oxy]-2-pyridinyl}-2,5-dioxo-1-phenyl-1,2,5,6,7,8-hexahydro-3-quinolinecarboxamide benzenesulfonate], the “Weight increase at relative humidity of 90% (%)” value in series [1] was 7.2%.

Regarding `COc1cc2nccc(Oc3ccc(NC(=O)c4cc5c(n(-c6ccccc6)c4=O)CCCC5=O)nc3)c2cc1OC.Cc1ccc(S(=O)(=O)O)cc1` [P-toluenesulfonate, N-{5-[(6,7-dimethoxy-4-quinolinyl)oxy]-2-pyridinyl}-2,5-dioxo-1-phenyl-1,2,5,6,7,8-hexahydro-3-quinolinecarboxamide p-toluenesulfonate], the “Weight increase at relative humidity of 90% (%)” value in series [1] is reported as 2.6%. Also, the residual rate % in series [2] (Aluminum foil shielding) came out at 100.6%; in series [2] (setting [4]), 92.7%; in series [2] (setting [5]), 86.1%; in series [3] (Aluminum foil shielding), 99.9%; in series [3] (Brown bottle), 83.3%; in series [3] (Transparent bottle), 40.7%.

On to `COc1cc2nccc(Oc3ccc(NC(=O)c4cc5c(n(-c6ccccc6)c4=O)CCCC5=O)nc3)c2cc1OC.CS(=O)(=O)O` [Methanesulfonate, N-{5-[(6,7-dimethoxy-4-quinolinyl)oxy]-2-pyridinyl}-2,5-dioxo-1-phenyl-1,2,5,6,7,8-hexahydro-3-quinolinecarboxamide methanesulfonate], for which, in series [1], the “Weight increase at relative humidity of 90% (%)” value is 4.0%.
